How the values were obtained:
mice = test: Motor activity in mice (exploratory activity in locomotion cage); type: in vivo; design: key to Motor Activity: +: increase; -: decrease; 0: no effect; conditions: for Motor Activity: recorded for 10 minutes 1 hour after administration, compared to control groups, i.p.; for central stimulation (in words): motor activity in mice
Method: The lack of euphoric effects, that is lack of central stimulatory activity, is tested by measuring the motor activity in mice after administration of the test substance.
The exploratory activity of mice was recorded in a locomotion cage in which the movements were counted each time the animals cross-circuits an electrical current in the bottom plate. The activity was recorded for 10 minutes 1 hour after the administration of the drug. The animals were tested individually. Groups of six mice were used and the mice were only used once. The activity was expressed in percent of the activity of control groups ran simultaneously. The compounds were administered in at least four doses. The increase (+) or decrease (-) of the activity compared to control groups was determined from log dose response curves.

isolated mice = test: Aggressive behavior in isolated male mice (antiaggressive activity); type: in vivo; conditions: Mus musculus, ip, 5 min; i.p.; dose which reduces the aggressiveness score by 50%; 5 min test; read-out: Antiaggressive behaviour in mice ED50
Method: Potential anxiolytic activity is tested by measuring the antiaggressivity in isolated mice after administration of the test substance. In this test not amphetamine but Valium -- a well-known anxiolytic substance -- is used as a reference.
Male mice kept isolated for 3 weeks or longer develop an aggressive behavior when caged together. The method used follows that of Valzelli et al. (Europ. J. Pharmacol. 2, 144, 1967), with the exception that two mice were tested on each other. The aggressiveness was scored during a 5 min test according to the following schedule:
0 the animals show no interest in each other except occasional nosing
25 frequent vigorous nosing and tail rattling, the animals assume a fighting position and occasionally attack each other -- no more than 3-4 times in the 5 min period
50 tail rattling, powerful attacks -- no more than 10 times in the test period
75 the animals follow their partners, attacking and biting for most of the time
100 attacks over the entire period.
The animals were used for several experiments but with intervals of at least 1 week. Groups of 10 mice were used.
ED50 is the dose which reduces the aggressiveness score by 50%.

5-HTP response = 5-HTP response potentiation test (potentiation of behavioral syndrome after dl-5-HTP); type: in vivo, mice; conditions: Mus musculus, ip; dl-5-HTP 90 mg/kg i.v.; at least five doses; probit analysis (Litchfield and Wilcoxon)
Source text: It is not possible by experimental means to induce depressions in laboratory animals. In order to evaluate a possible anti depressive effect on new substances biochemical-pharmacological test methods must be resorted to. One such method, which seems to give a good indication of the potential anti depressive effects of the test substances, is described in Europ. J. Pharmacol. 17, 107, 1972. This method involves the measurement of the potentiation of the syndromes produced by 5-hydroxytryptophan (5-HTP) in a laboratory animal.
Inhibition of the uptake of 5-HT potentiates the effects of administered 5-hydroxytryptophan (5-HTP) probably by increasing the amount of 5-HT at the receptor. Three mice are given the test drugs 1 hour (or 4, 24 hours) before dl-5-HTP, 90 mg/kg i.v. 5-HTP alone gives only a weak behavioral syndrome but in pretreated mice there is seen a characteristic behavioral syndrome, which comes within 5 minutes: tremor, lordosis, abduction of the hind-legs, head-twitches.
The absence or presence of respective syndrome is scored in groups of 10 mice. The compound was administered in at least five doses and the quantal responses were analysed by probit analysis and ED50 determined according to the method of Litchfield and Wilcoxon.

SMILES	Motor Activity (mice)	other results
CC(N)Cc1c(Cl)cc(N(C)C)cc1Cl.Cl.Cl (stereo not drawn) [2-Cl 6-Cl CH3 CH3 H CH3, 2,6-Dichloro-4-dimethylamino-α-methylphenethylamine dihydrochloride]	-	
CC(N)Cc1ccccc1 (stereo not shown) [Amphetamine]		central stimulation (in words) (mice): pronounced
Cc1cc(N(C)C)ccc1CC(C)N.Cl.Cl (stereo not drawn) [H 2-CH 3 CH3 CH3 H CH3, 2-Methyl-4-dimethylamino-α-methylphenethylamine dihydrochloride]	-	
CCC(N)Cc1ccc(N(C)C)cc1Cl (stereo not shown) [H 2-Cl CH3 CH3 H C2 H5]	0	
CC(N)Cc1ccc(N(C)C)cc1Cl.Cl.Cl (stereo not drawn) [H 2-Cl CH3 CH3 H CH3, 2-Chloro-4dimethylamino-α-methylphenethylamine dihydrochloride]	-	
CCN(CC)c1ccc(CC(C)N)cc1 (stereo not shown) [H H C2 H5 C2 H5 H CH3]	-	
CC(N)Cc1ccc2c(c1)CCCN2C.Cl.Cl (stereo not shown) [H H CH3 (CH2)3 H CH3, 6-(2-Aminopropyl)-1-methyl-1,2,3,4-tetrahydroquinoline dihydrochloride]		ED50 (isolated mice): > 5 mg/kg; ED50 (5-HTP response): 1.5 mg/kg
CN(C)c1ccc(CC(C)(C)N)cc1.Cl.Cl [H H CH3 CH3 CH3 CH3, 4-Dimethylamino-α, α-dimethylphenethylamine dihydrochloride]	0	
CC(N)Cc1ccc(Cl)cc1 (stereo not shown) [P-Chloroamphetamine, reference compound]		central stimulation (in words) (mice): pronounced
